Data on eleven compounds can be found in ChEMBL document CHEMBL1201862, “PubChem BioAssay data set” (2004).

Among the test systems are SK-OV-3; OVCAR-3; M14; HCT-15; NCI-H23; HL-60; KM12; SF-268; SK-MEL-28; EKVX; IGROV-1; MOLT-4; T47D; SW-620; U-251; Hs-578T; UACC-257; K562; OVCAR-4; SK-MEL-2.
What all share (assay): growth of human tumour cells (NCI), 48 h

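Five compound concentrations were applied to cells in 96-well plates for 48 hours; endpoints were derived by simple linear interpolation of the resulting dose-response curve. At the GI50, growth is halved.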 The source made the active and inactive calls. Rule as the data show it: active = GI50 up to about 1.1 µM and inactive = higher.

`COc1cc(OC)cc(C(=O)CC(=O)c2cc(OC)cc(OC)c2)c1`: the GI50 with SK-OV-3 is > 100 µM (inactive); with OVCAR-3 it was > 100 µM (inactive); in the assay on M14, > 100 µM (inactive); in the assay on HCT-15, 68.9 µM; in the assay on NCI-H23 it was > 100 µM (inactive); with HL-60, 6.01 µM (inactive). The GI50 in the assay on KM12, in the assay with SF-268, in the assay with SK-MEL-28, with EKVX, in the assay with IGROV-1 and in the assay with MOLT-4 was > 100 µM (inactive) in each case. Besides, the GI50 in the assay on T47D is > 100 µM (inactive); in the assay with SW-620, 95.1 µM (inactive); with U-251, > 100 µM (inactive); in the assay with Hs-578T, > 100 µM (inactive); in the assay with UACC-257, > 100 µM (inactive); in the assay on K562 it was 46.1 µM (inactive).

As for `Cc1n[nH]c(=O)n1-c1cccnc1`, the GI50 is > 100 µM (inactive) in the assay with OVCAR-3; > 100 µM (inactive) in the assay on M14; more than 100 µM in the assay on HCT-15; > 100 µM (inactive) in the assay on NCI-H23; > 100 µM (inactive) in the assay on HL-60; > 100 µM (inactive) with KM12. The GI50 with SF-268, with SK-MEL-28, in the assay with EKVX, in the assay on IGROV-1, with MOLT-4 and in the assay on T47D was > 100 µM (inactive) in each case. The GI50 with SW-620, in the assay with U-251, in the assay with OVCAR-4, with Hs-578T, with UACC-257 and in the assay with K562 was > 100 µM (inactive) each time.

On to `C=CCNC(NCC=C)=C(C(Cl)=C(Cl)Cl)[N+](=O)[O-]`, for which the GI50 in the assay with SK-OV-3 is > 100 µM (inactive); with OVCAR-3, 26.2 µM (inactive); with M14, 31.9 µM (inactive); with HCT-15, 16.8 µM; in the assay on NCI-H23, 34.1 µM (inactive); in the assay with KM12, 65.5 µM (inactive). The GI50 in the assay on SF-268 was 53.8 µM (inactive); in the assay on SK-MEL-28, 79.3 µM (inactive); in the assay on EKVX it was 67.3 µM (inactive); in the assay on MOLT-4, 31.5 µM (inactive); in the assay with T47D, 30.5 µM (inactive); in the assay on SK-MEL-2, > 100 µM (inactive). For the same compound, the GI50 with SW-620 was 22.9 µM (inactive); with U-251, > 100 µM (inactive); in the assay with OVCAR-4, 31.8 µM (inactive); with Hs-578T, 25.4 µM (inactive); with UACC-257, > 100 µM (inactive); with K562 it was 16.7 µM (inactive).

With `CC(=O)OCCN(C1=NCCN1)/[N+](C=c1ccc(=C=[N-])cc1)=C/c1ccc(C#N)cc1`, the GI50 with SK-OV-3 was > 100 µM (inactive); in the assay with OVCAR-3, > 100 µM (inactive); in the assay on M14, > 100 µM (inactive); in the assay on HCT-15 it was more than 100 µM; in the assay on NCI-H23, > 100 µM (inactive); in the assay on KM12, > 100 µM (inactive). Also, the GI50 in the assay with SF-268, in the assay with SK-MEL-28, in the assay on EKVX, in the assay with IGROV-1, with MOLT-4 and in the assay on T47D was > 100 µM (inactive) throughout. The GI50 in the assay on SK-MEL-2, in the assay with SW-620, in the assay on U-251, in the assay on OVCAR-4, in the assay with Hs-578T and in the assay on UACC-257 was > 100 µM (inactive) throughout. In addition, in the assay with K562, the GI50 is > 100 µM (inactive).

Turning to `Cc1c2c(n(CCc3ccc(Cl)cc3)c1C)NN=C(C#N)S2(=O)=O`, the GI50 in the assay on SK-OV-3 was > 100 µM (inactive); in the assay with OVCAR-3, > 100 µM (inactive); with M14 it was 91.4 µM (inactive); in the assay with HCT-15 it was more than 100 µM; with NCI-H23 it was > 100 µM (inactive); with KM12 it was > 100 µM (inactive). The GI50 is 48.5 µM (inactive) in the assay with SF-268; > 100 µM (inactive) with SK-MEL-28; > 100 µM (inactive) with EKVX; > 100 µM (inactive) with IGROV-1; 69.3 µM (inactive) with MOLT-4; > 100 µM (inactive) with T47D. Further, the GI50 with SK-MEL-2, in the assay on SW-620, in the assay on U-251, in the assay on OVCAR-4, in the assay with Hs-578T and in the assay on UACC-257 was > 100 µM (inactive) each time. The GI50 in the assay on K562 was 84.7 µM (inactive).

In the case of `O=c1[nH]/c(=C/c2cccs2)c(=O)[nH]/c1=C/c1ccc(OCc2ccccc2)cn1`, the GI50 was 0.0426 µM (active) in the assay with SK-OV-3; < 0.0146 µM (active) with OVCAR-3; 0.0309 µM (active) with M14; less than 0.015 µM in the assay on HCT-15; 0.0398 µM (active) in the assay on NCI-H23; < 0.0182 µM (active) with HL-60. The GI50 in the assay with KM12 was 0.59 µM (active); with SF-268, 0.0521 µM (active); in the assay with SK-MEL-28, 3.3 µM (inactive); with EKVX it was 1 µM (active); with IGROV-1, 0.219 µM (active); with MOLT-4, 0.033 µM (active). Further, the GI50 with SK-MEL-2 is 0.0561 µM (active); with SW-620, 0.0361 µM (active); in the assay on U-251 it was 0.0631 µM (active); with OVCAR-4, 0.0836 µM (active); with Hs-578T it was 0.0276 µM (active); in the assay with UACC-257 it was 0.116 µM (active). In the assay on K562, the GI50 is < 0.0156 µM (active).

Consider `COc1cc(/N=C(\N)N=C(N)N)c2ncccc2c1`, for which the GI50 was > 100 µM (inactive) in the assay on SK-OV-3; > 100 µM (inactive) in the assay on OVCAR-3; > 100 µM (inactive) in the assay with M14; more than 100 µM in the assay with HCT-15; 80.7 µM (inactive) in the assay with NCI-H23; 45.3 µM (inactive) in the assay with KM12. In addition, the GI50 in the assay on SF-268 was 98.2 µM (inactive); in the assay on SK-MEL-28 it was > 100 µM (inactive); in the assay with EKVX it was > 100 µM (inactive); with IGROV-1, > 100 µM (inactive); in the assay on T47D, 29.9 µM (inactive); in the assay with SK-MEL-2 it was > 100 µM (inactive). Also, the GI50 is > 100 µM (inactive) in the assay on SW-620; 38 µM (inactive) in the assay on U-251; > 100 µM (inactive) in the assay with OVCAR-4; 98.4 µM (inactive) with Hs-578T; > 100 µM (inactive) in the assay on UACC-257.

On to `CCOC(=O)C(COS(C)(=O)=O)(COS(C)(=O)=O)C(=O)OCC`, for which the GI50 is > 100 µM (inactive) in the assay with SK-OV-3; > 100 µM (inactive) with OVCAR-3; > 100 µM (inactive) with M14; more than 100 µM with HCT-15; > 100 µM (inactive) in the assay on NCI-H23; > 100 µM (inactive) in the assay on KM12. The GI50 in the assay with SF-268, in the assay with SK-MEL-28, in the assay on MOLT-4, with T47D, in the assay on SW-620 and in the assay with U-251 was > 100 µM (inactive) throughout. The GI50 with OVCAR-4, in the assay on Hs-578T, with UACC-257 and with K562 was > 100 µM (inactive) in each case.

As to `c1ccc(/N=C2\C(=N/c3ccccc3)N(C3CCCCC3)/C(=N\C3CCCCC3)N2c2ccccc2)cc1`, the GI50 was > 100 µM (inactive) with M14; more than 100 µM in the assay with HCT-15; > 100 µM (inactive) in the assay on NCI-H23; > 100 µM (inactive) in the assay with HL-60; > 100 µM (inactive) with KM12; > 100 µM (inactive) in the assay with SK-MEL-28. Also, the GI50 was > 100 µM (inactive) with EKVX; > 100 µM (inactive) with IGROV-1; > 100 µM (inactive) with MOLT-4; 49.9 µM (inactive) in the assay on T47D; > 100 µM (inactive) in the assay with SK-MEL-2; > 100 µM (inactive) with SW-620. In addition, the GI50 with U-251, in the assay on Hs-578T, in the assay on UACC-257 and with K562 was > 100 µM (inactive) throughout.

On to `O=[N+]([O-])c1ccc(-c2nc3cc(Cl)ccc3[nH]2)cc1`, for which the GI50 with SK-OV-3 is > 100 µM (inactive); with OVCAR-3 it was 45.1 µM (inactive); in the assay on M14 it was 60.7 µM (inactive); in the assay on HCT-15, 52 µM; in the assay on NCI-H23, 42.5 µM (inactive); in the assay with SF-268, > 100 µM (inactive). Also, the GI50 in the assay on SK-MEL-28 is > 100 µM (inactive); with EKVX, 69.5 µM (inactive); in the assay on IGROV-1 it was 81.3 µM (inactive); with MOLT-4, 64 µM (inactive); with T47D it was 39.1 µM (inactive); with SW-620 it was 62.4 µM (inactive). Moreover, the GI50 is 95.5 µM (inactive) with OVCAR-4, > 100 µM (inactive) in the assay with Hs-578T and 76 µM (inactive) with UACC-257.

On to `CCOC(=O)C1CCCCN1CCc1c[nH]c2ccccc12` (centres undefined), for which the GI50 with SK-OV-3 was > 100 µM (inactive); in the assay on OVCAR-3, > 100 µM (inactive); with M14, > 100 µM (inactive); with HCT-15, 93.1 µM; in the assay on NCI-H23 it was 83.8 µM (inactive); in the assay with KM12 it was > 100 µM (inactive). For the same compound, the GI50 with SF-268 was > 100 µM (inactive); in the assay on SK-MEL-28, > 100 µM (inactive); in the assay with EKVX, > 100 µM (inactive); in the assay with IGROV-1, > 100 µM (inactive); in the assay with MOLT-4 it was 25.1 µM (inactive); with T47D, 32.5 µM (inactive). Further, the GI50 with SK-MEL-2 was > 100 µM (inactive); in the assay on SW-620 it was > 100 µM (inactive); in the assay with U-251, > 100 µM (inactive); with OVCAR-4, 73.5 µM (inactive); in the assay on Hs-578T it was > 100 µM (inactive); in the assay on UACC-257, > 100 µM (inactive). Besides, the GI50 in the assay with K562 is 72.3 µM (inactive).
